Assay results reported in PubChem BioAssay AID1963872 (Molecular Pharmacology Branch, DTP, NCI, 2024).

Tested on: KRAS patient-derived spheroids with HUVEC/MSC, viability
Assay: Anticancer human tumor 519858-162-T-J1-PDC patient-derived colon adenocarcinoma cell line growth inhibition [KRAS2]
Details: for IC50: curve of first compound; for viability, T/C: stronger effect = lower value
Excerpt: Multicellular complex tumor spheroid response to RAS pathway inhibitors in combination with a targeted agents in patient-derived cell lines with oncogenic KRAS variants from multiple cancer types
A high-throughput screen of multi-cell type tumor spheroids was designed to identify active combinations of targeted small molecules and KRAS pathway inhibitors. Complex spheroids include a stromal component modeled by human endothelial cells (HUVEC) and fibroblasts modeled by human mesenchymal stem cells (MSCs). The concentration ranges selected for each drug and investigational agent were based upon clinically achievable concentrations if the clinical Cmax of the agent was known.
Compounds. The drugs and investigational agents: BI-3406 (NSC825286), BAY-293 (NSC824723), batoprotafib (TNO155; NSC825523), sotorasib (AMG 510; NSC818433), MRTX1257 (NSC819558), elimusertib (BAY 1895344; NSC800525), molibresib (GSK525762; NSC774829), temuterkib (LY3214996; NSC803410), venetoclax (NSC766270), alisertib (NSC759677), olaparib (NSC753686), talazoparib (NSC767125), erdafitinib (NSC781556), ipatasertib (NSC767898), cabozantinib (NSC761068), nintedanib (NSC756659), abemaciclib (NSC768073), docetaxel (NSC628503), trametinib (NSC758246), and sapanisertib (NSC764658) were obtained from the National Cancer Institute (NCI) Developmental Therapeutics Program Chemical Repository. The FDA-approved anticancer drug set is available from the Developmental Therapeutics Program. […] The stock solutions were prepared in dimethyl sulfoxide (DMSO, Sigma-Aldrich, St. Louis, MO, cat. D2650) at 800-fold the tested concentration and stored at -70 degrees C prior to their use. All drugs and investigational agents were tested over a range starting from a high concentration at or near the clinical Cmax and decreasing in half-log increments. If the clinical Cmax for an agent had not been determined, the highest concentration tested was 10 microM.
Cell Culture. All cells were maintained in an incubator at 37 degrees C and 5% CO2 with 95% humidity. The PDC lines were cultured according to standard operating procedures established by the NCI PDMR (https://pdmr.cancer.gov/sops/default.htm). Briefly, all PDCs were thawed and cultured in Matrigel-coated flasks prepared with a working solution of 1X Ham's F-12 nutrient mix, without supplementation (Invitrogen, Waltham, MA, cat. 11765054), 100 U/mL penicillin-streptomycin (Invitrogen, cat. 15140122), and 2.5% Matrigel (Corning Inc., Corning, NY, cat. 354248) for the first three passages. All PDCs were cultured in complete DMEM/F-12 media containing advanced DMEM/F-12 (Invitrogen, cat. 12634028), 4.9% defined fetal bovine serum, heat inactivated (HyClone Laboratories Inc., Logan, UT, cat. SH30070.03HI), 389 ng/mL hydrocortisone (Sigma-Aldrich, cat. H4001), 9.7 ng/mL human EGF recombinant protein (Invitrogen, cat. PHG0313), 23.4 microg/mL adenine (Sigma-Aldrich, cat. A2786), 97.3 U/mL penicillin-streptomycin (Invitrogen, cat. 15140122), 1.9 mM L-glutamine (Invitrogen, cat. 25030081), and 9.7 microM Y-27632 dihydrochloride (Tocris Bioscience, Bristol, United Kingdom, cat. 1254). The PDCs were cultured in complete DMEM/F12 media without 9.7 microM Y-27632 dihydrochloride for at least two passages prior to the screen. The established cell line HOP-62 was cultured in RPMI 1640 medium, HEPES (Invitrogen, cat. 22400105) with 10% defined fetal bovine serum (HyClone Laboratories Inc., cat. SH30070.03) and 2 mM L-glutamine (Invitrogen, cat. 25030081). The pooled donor HUVEC were cultured in endothelial cell growth medium 2 (PromoCell, Heidelberg, Germany, cat. C-22011) and the hMSC were cultured in mesenchymal stem cell growth medium 2 (PromoCell, cat. C-28009). For all experiments, HUVEC and hMSC were used at passages </=5, while the malignant cell lines were used at passages </=15. […]

[1] = second compound 0.1 µM, first compound 0.0316 µM
[2] = second compound 0.1 µM, first compound 0.1 µM
[3] = second compound 0.1 µM, first compound 0.316 µM
[4] = second compound 0.1 µM, first compound 1 µM
[5] = second compound 0.1 µM, first compound 3.16 µM
[6] = second compound 0.1 µM, first compound 10 µM
[7] = second compound 0.316 µM, first compound 0.0316 µM
[8] = second compound 0.316 µM, first compound 0.1 µM
[9] = second compound 0.316 µM, first compound 0.316 µM
[10] = second compound 0.316 µM, first compound 1 µM
[11] = second compound 0.316 µM, first compound 3.16 µM
[12] = second compound 0.316 µM, first compound 10 µM
[13] = second compound 1 µM, first compound 0.0316 µM
[14] = second compound 1 µM, first compound 0.1 µM
[15] = second compound 1 µM, first compound 0.316 µM
[16] = second compound 1 µM, first compound 1 µM
[17] = second compound 1 µM, first compound 3.16 µM
[18] = second compound 1 µM, first compound 10 µM
[19] = second compound 3.16 µM, first compound 0.0316 µM
[20] = second compound 3.16 µM, first compound 0.1 µM
[21] = second compound 3.16 µM, first compound 0.316 µM
[22] = second compound 3.16 µM, first compound 1 µM
[23] = second compound 3.16 µM, first compound 3.16 µM
[24] = second compound 3.16 µM, first compound 10 µM
[25] = second compound 10 µM, first compound 0.0316 µM
[26] = second compound 10 µM, first compound 0.1 µM
[27] = second compound 10 µM, first compound 0.316 µM
[28] = second compound 10 µM, first compound 1 µM
[29] = second compound 10 µM, first compound 3.16 µM
[30] = second compound 10 µM, first compound 10 µM
[31] = second compound 0.1 µM, first compound 0.00316 µM
[32] = second compound 0.1 µM, first compound 0.01 µM
[33] = second compound 0.316 µM, first compound 0.00316 µM
[34] = second compound 0.316 µM, first compound 0.01 µM
[35] = second compound 1 µM, first compound 0.00316 µM
[36] = second compound 1 µM, first compound 0.01 µM
[37] = second compound 3.16 µM, first compound 0.00316 µM
[38] = second compound 3.16 µM, first compound 0.01 µM
[39] = second compound 10 µM, first compound 0.00316 µM
[40] = second compound 10 µM, first compound 0.01 µM
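Note: compound exposure lasted seven days before readout.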
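Throughout, for viability, T/C: 100% = DMSO vehicle control viability.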

| SMILES | IC50 (second compound 0.1 µM) | IC50 (second compound 0.316 µM) | IC50 (second compound 1 µM) | IC50 (second compound 3.16 µM) | IC50 (second compound 10 µM) | viability, T/C [1] | viability, T/C [2] | viability, T/C [3] | viability, T/C [4] | viability, T/C [7] | viability, T/C [8] | viability, T/C [9] | viability, T/C [10] | viability, T/C [13] | viability, T/C [14] | viability, T/C [15] | viability, T/C [19] | viability, T/C [20] | viability, T/C [25] | viability, T/C [26] | also measured |
| --- | --- | --- | --- | --- | --- | --- | --- | --- | --- | --- | --- | --- | --- | --- | --- | --- | --- | --- | --- | --- | --- |
| CC(C)NCC(C(=O)N1CCN(c2ncnc3c2C(C)CC3O)CC1)c1ccc(Cl)cc1 (stereo not given) + C=CC(=O)N1CCN(c2nc(=O)n(-c3c(C)ccnc3C(C)C)c3nc(-c4c(O)cccc4F)c(F)cc23)C(C)C1 | > 10000 nM | > 10000 nM | > 10000 nM | > 10000 nM | > 10000 nM | 95.1% | 103% | 65.2% | 69% | 95.3% | 83.3% | 86.5% | 91.9% | 68.7% | 105% | 96.9% | 92.8% | 90.3% | 85.9% | 73.8% | viability, T/C [5]: 111%; viability, T/C [6]: 93.2%; viability, T/C [11]: 99.1%; viability, T/C [12]: 119%; viability, T/C [16]: 102%; viability, T/C [17]: 77.8%; viability, T/C [18]: 72.7%; viability, T/C [21]: 87.5%; viability, T/C [22]: 67%; viability, T/C [23]: 82.7%; viability, T/C [24]: 87.5%; viability, T/C [27]: 64.1%; viability, T/C [28]: 73.9%; viability, T/C [29]: 90.8%; viability, T/C [30]: 75% |
| CC1(C)CCC(CN2CCN(c3ccc(C(=O)NS(=O)(=O)c4ccc(NCC5CCOCC5)c([N+](=O)[O-])c4)c(Oc4cnc5[nH]ccc5c4)c3)CC2)=C(c2ccc(Cl)cc2)C1 + C=CC(=O)N1CCN(c2nc(=O)n(-c3c(C)ccnc3C(C)C)c3nc(-c4c(O)cccc4F)c(F)cc23)C(C)C1 | 7910 nM | > 10000 nM | > 10000 nM | > 10000 nM | > 10000 nM | 83.4% | 102% | 88% | 81.2% | 93.9% | 89.1% | 68.6% | 79.4% | 90.9% | 73.7% | 94.7% | 63.3% | 96.4% | 77.8% | 84.3% | viability, T/C [5]: 91.6%; viability, T/C [6]: 39.9%; viability, T/C [11]: 92.2%; viability, T/C [12]: 61.5%; viability, T/C [16]: 96.6%; viability, T/C [17]: 84.6%; viability, T/C [18]: 65.6%; viability, T/C [21]: 81.6%; viability, T/C [22]: 64.1%; viability, T/C [23]: 84.4%; viability, T/C [24]: 61.3%; viability, T/C [27]: 58.2%; viability, T/C [28]: 81.9%; viability, T/C [29]: 56.3%; viability, T/C [30]: 70.6% |
| CCN1CCN(Cc2ccc(Nc3ncc(F)c(-c4cc(F)c5nc(C)n(C(C)C)c5c4)n3)nc2)CC1 + C=CC(=O)N1CCN(c2nc(=O)n(-c3c(C)ccnc3C(C)C)c3nc(-c4c(O)cccc4F)c(F)cc23)C(C)C1 | > 1000 nM | > 1000 nM | > 1000 nM | 742 nM | 265 nM | 71.9% | 72.4% | 78.6% | 59.3% | 79.2% | 62.2% | 66% | 49.2% | 83.6% | 60.4% | 72.8% | 69.3% | 73.9% | 51.8% | 75.7% | viability, T/C [31]: 83%; viability, T/C [32]: 67.4%; viability, T/C [33]: 98.6%; viability, T/C [34]: 96.5%; viability, T/C [35]: 61.9%; viability, T/C [36]: 111%; viability, T/C [16]: 50.4%; viability, T/C [37]: 84.2%; viability, T/C [38]: 93.7%; viability, T/C [21]: 64.6%; viability, T/C [22]: 44.6%; viability, T/C [39]: 109%; viability, T/C [40]: 97.7%; viability, T/C [27]: 60.5%; viability, T/C [28]: 23.4% |
| Cn1ncnc1[C@H]1c2n[nH]c(=O)c3cc(F)cc(c23)N[C@@H]1c1ccc(F)cc1 + C=CC(=O)N1CCN(c2nc(=O)n(-c3c(C)ccnc3C(C)C)c3nc(-c4c(O)cccc4F)c(F)cc23)C(C)C1 | > 100 nM | > 100 nM | > 100 nM | > 100 nM | > 100 nM | 75.1% | 76.8% | – | – | 93% | 96.2% | – | – | 102% | 89.9% | – | 76.8% | 99.2% | 84.9% | 93.6% | viability, T/C (second compound 0.1 µM, first compound 0.000316 µM): 105%; viability, T/C (second compound 0.1 µM, first compound 0.001 µM): 89.7%; viability, T/C [31]: 106%; viability, T/C [32]: 94.3%; viability, T/C (second compound 0.316 µM, first compound 0.000316 µM): 95.2%; viability, T/C (second compound 0.316 µM, first compound 0.001 µM): 83.4%; viability, T/C [33]: 94.8%; viability, T/C [34]: 76%; viability, T/C (second compound 1 µM, first compound 0.000316 µM): 79.9%; viability, T/C (second compound 1 µM, first compound 0.001 µM): 71.8%; viability, T/C [35]: 94.1%; viability, T/C [36]: 67.6%; viability, T/C (second compound 3.16 µM, first compound 0.000316 µM): 82%; viability, T/C (second compound 3.16 µM, first compound 0.001 µM): 85.1%; viability, T/C [37]: 88.3%; viability, T/C [38]: 120%; viability, T/C (second compound 10 µM, first compound 0.000316 µM): 102%; viability, T/C (second compound 10 µM, first compound 0.001 µM): 75.4%; viability, T/C [39]: 80.5%; viability, T/C [40]: 86.9% |
